The values that follow come from patent publication US8999956B2, “N-[(het)arylalkyl)] pyrazole(thio)carboxamides and their heterosubstituted analogues” (Bayer Intellectual Property GmbH, priority 2010, dated 2015).

SMILES strings stand for the structures. Read-outs that look alike come from different tables or passages of the source.

The subject of data set [1] is Sphaerotheca fuliginea. In words: In vivo preventive test on Sphaerotheca fuliginea (cucumber). The note with it: 500 ppm of active ingredient, evaluated 7 days after inoculation. On the procedure: Solvent: 49 parts by weight of N,N-dimethylformamide Emulsifier: 1 part by weight of Alkylarylpolyglycolether To produce a suitable preparation of active compound, 1 part by weight of active compound is mixed with the stated amounts of solvent and emulsifier, and the concentrate is diluted with water to the desired concentration. To test for preventive activity, young plants are sprayed with the preparation of active compound at the stated rate of application. One day after this treatment, the plants are inoculated with an aqueous spore suspension of Sphaerotheca fuliginea. Then the plants are placed in a greenhouse at approximately 23° C. and a relative atmospheric humidity of approximately 70%.

Data set [2] deals with Alternaria solani. The data set is described as follows: In vivo preventive test on Alternaria solani (tomato). The note with it: 500 ppm of active ingredient, evaluated 7 days after inoculation. The procedure, abridged:
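Young tomato plants sprayed preventively with compound in DMF/alkylarylpolyglycolether emulsion diluted in water to the stated rate. Inoculation with aqueous Alternaria solani spore suspension one day after treatment.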

Data set [3] deals with Pyrenophora teres. The data set is described as follows: In vivo preventive test on Pyrenophora teres (barley). The note with it: 500 ppm of active ingredient, evaluated 7-9 days after inoculation. The gist of the method: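 Compound formulated in N,N-dimethylformamide with alkylaryl polyglycol ether emulsifier and diluted in water, then sprayed on young barley plants at the stated application rate. Plants inoculated one day later with aqueous Pyrenophora teres spore suspension, testing preventive protection.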

The test system of data set [4] is aflatoxines produced by Aspergillus parasiticus. The data set is described as follows: microbe, parasite or virus in culture. Type of data set: cell-based.
Data set [5] deals with Aspergillus parasiticus. The data set is described as follows: microbe, parasite or virus in culture. In kind it is cell-based.
Data set [6] in a line: log P by HPLC on reversed-phase column (EEC Directive 79/831 Annex V.A8). Type of data set: physicochemical. On the procedure: In table 1, the log P values were determined in accordance with EEC Directive 79/831 Annex V.A8 by HPLC (High Performance Liquid Chromatography) on a reversed-phase column (C18), using the method described below: Temperature: 40° C.; […]
In data set [7] the test system is Puccinia triticina. The data set is described as follows: In vivo preventive test on Puccinia triticina (wheat). The note with it: for pest or weed control at 500 ppm: Puccinia triticina, 192 h, read-out: Efficacy.
Setting [8] is: 500 ppm of active ingredient, evaluated 8 days after inoculation.
Where [9] appears, read: Table K, 500 ppm of active ingredient, evaluated 8 days after inoculation.
The mark [10] stands for this setting: Table K6, dose 500 ppm, comparison with des-fluoro analogues.

Consider `CC(CCc1ccccc1Cl)NC(=O)c1c(C(F)F)nn(C)c1F` (racemic) [Example 144], for which the results for the Efficacy in data set [1], in data set [2] and in data set [3] were 90%, 100% and 100%, respectively. In addition, in data set [4], the “% Inhibition of Aflatoxin at 50 μM” value worked out at 100%. In addition, in data set [5], the “% Inhibition of fungal growth at 50 μM” value is given as 94%. The logP (in general, a log measure of how a compound divides between an organic and an aqueous phase) in data set [6] is on record as 3.21.
`Cc1cccc(C)c1CC(C)CNC(=O)c1c(C(F)F)nn(C)c1F` (racemic) [Example 150]: the Efficacy in data set [1] came out at 83%; in data set [2] it was 80%; in data set [3], 100%. Besides, the “% Inhibition of Aflatoxin at 50 μM” value in data set [4] is reported as 100%. For the same compound, the “% Inhibition of fungal growth at 50 μM” value in data set [5] turned out to be 82%. Besides, in data set [6], the logP was 3.44.
Consider `Cc1nn(C)c(F)c1C(=O)N(C(C)CCc1ccc(Cl)c(Cl)c1)C1CC1` (stereo not shown) [E-13 from WO-2008/101976, N-cyclopropyl-N-[4-(3,4-dichlorophenyl)butan-2-yl]-5-fluoro-1,3-dimethyl-1H-pyrazole-4-carboxamide, reference compound], for which the Efficacy entry in data set [7] (500 ppm of active ingredient, evaluated 8 days after inoculation, listed as example E-13 disclosed in patent application WO-2008/101976) is “no protection”. Also, the pest or weed control at 500 ppm in data set [7] (setting [8]) worked out at 0%.
Consider `CC(CCc1ccc(C(F)(F)F)cc1)NC(=O)c1c(C(F)F)nn(C)c1Cl` (stereo not shown) [Example 70], for which the figures for the Efficacy in data set [1], in data set [2] and in data set [3] were 75%, 95% and 100%, respectively. Besides, in data set [4], the “% Inhibition of Aflatoxin at 50 μM” value is given as 97%. The “% Inhibition of fungal growth at 50 μM” value in data set [5] was 78%. This compound also had a logP in data set [6] of 3.63.
As for `CC(CCc1ccc(C(F)(F)F)cc1)NC(=O)c1c(C(F)F)nn(C)c1F` (stereo not shown) [Example 71], the Efficacy in data set [1] was determined as 95%; in data set [2], 95%; in data set [3], 100%. Further, the “% Inhibition of Aflatoxin at 50 μM” value in data set [4] is 100%. The “% Inhibition of fungal growth at 50 μM” value in data set [5] came to 83%. Moreover, the lipophilicity (logP) in data set [6] was 3.46.
On to `CCC(CCc1sccc1Br)NC(=O)c1c(C(F)F)nn(C)c1F` (stereo not shown) [Example 89], for which the figures for the Efficacy in data set [1], in data set [2] and in data set [3] were 88%, 80% and 100%, respectively. Also, the “% Inhibition of Aflatoxin at 50 μM” value in data set [4] is given as 100%. Moreover, the “% Inhibition of fungal growth at 50 μM” value in data set [5] is recorded as 89%. This compound also came in with a logP in data set [6] of 3.46.
In the case of `Cc1cccc(C)c1OCC(C)N(C(=O)c1c(C(F)F)nn(C)c1F)C1CC1` (stereo not shown) [Example 155], the Efficacy in data set [3] is reported as 100%; in data set [7] (setting [9]), 90%. The “% Inhibition of Aflatoxin at 50 μM” value in data set [4] was found to be 100%. Also, the “% Inhibition of fungal growth at 50 μM” value in data set [5] is recorded as 100%. The compound also registered a logP in data set [6] of 3.94.
`CN(CCCc1cc(Cl)ccc1Cl)C(=O)c1c(C(F)F)nn(C)c1F` [Example 166]: the Efficacy in data set [2] was determined as 100%; in data set [3], 100%; in data set [7] (setting [9]), 78%. Further, the “% Inhibition of Aflatoxin at 50 μM” value in data set [4] worked out at 100%. In addition, in data set [5], the “% Inhibition of fungal growth at 50 μM” value was determined as 88%. The same compound had a logP in data set [6] of 3.48.
On to `CN(CCCc1cc(Cl)ccc1Cl)C(=O)c1c(C(F)F)nn(C)c1Cl` [Example 167], for which the values for the Efficacy in data set [2], in data set [3] and in data set [7] (setting [9]) were 100%, 80% and 70%, respectively. In addition, the logP in data set [6] is 3.62.
On to `CC(CCc1cc(Cl)ccc1Cl)NC(=O)c1c(C(F)F)nn(C)c1F` (stereo not shown) [Example 172], for which the Efficacy in data set [1] came out at 93%; in data set [2] it was 100%; in data set [3], 100%. Also, the “% Inhibition of Aflatoxin at 50 μM” value in data set [4] is reported as 100%. The “% Inhibition of fungal growth at 50 μM” value in data set [5] amounted to 100%. This compound also displayed a lipophilicity (logP) in data set [6] of 3.68.
For `CC(N(C(=O)c1c(C(F)F)nn(C)c1Cl)C1CC1)C(C)(C)Cc1ccc(Cl)cc1Cl` (stereo not shown) [Example 182], the Efficacy in data set [1] is 75%; in data set [2], 95%; in data set [3], 100%. The “% Inhibition of Aflatoxin at 50 μM” value in data set [4] was determined as 100%. Further, in data set [5], the “% Inhibition of fungal growth at 50 μM” value was 90%. In addition, the logP in data set [6] came to 5.39.
With `Cn1nc(C(F)F)c(C(=O)NC(C)(C)CCc2ccc(Cl)cc2Cl)c1F` [Example 196], the Efficacy in data set [1] amounted to 75%; in data set [2], 95%; in data set [3], 100%. Moreover, the “% Inhibition of Aflatoxin at 50 μM” value in data set [4] turned out to be 100%. Besides, the “% Inhibition of fungal growth at 50 μM” value in data set [5] was 91%. This compound also had a lipophilicity (logP) in data set [6] of 4.39.
Take `CC(CCc1ccccc1C(F)(F)F)N(C(=O)c1c(C(F)F)nn(C)c1Cl)C1CC1` (stereo not shown) [Example 220]: the values for the Efficacy in data set [2], in data set [3] and in data set [7] (setting [9]) were 95%, 100% and 90%, respectively. This compound had a logP in data set [6] of 4.26.
Regarding `Cn1nc(C(F)F)c(C(=O)NC2CCCCC2Oc2ccccc2)c1Cl` (stereo not shown) [Example 246], the Efficacy in data set [7] (setting [9]) worked out at 95%. The compound further yielded a logP in data set [6] of 3.76.
Turning to `CC(C)CCC1CCCC1NC(=O)c1c(C(F)F)nn(C)c1Cl` (stereo not shown) [Example 309], the Efficacy was found to be 98% in data set [1], 100% in data set [2] and 100% in data set [3]. Moreover, the “% Inhibition of Aflatoxin at 50 μM” value in data set [4] was determined as 100%. In addition, the “% Inhibition of fungal growth at 50 μM” value in data set [5] came to 82%. Also, in data set [6], the logP is recorded as 4.20.
Consider `CC(C)CC1CCCCC1NC(=O)c1c(C(F)F)nn(C)c1F` (stereo not shown) [Example 340], for which the Efficacy worked out at 90% in data set [1], 100% in data set [2] and 100% in data set [3]. The “% Inhibition of Aflatoxin at 50 μM” value in data set [4] amounted to 100%. Besides, the “% Inhibition of fungal growth at 50 μM” value in data set [5] amounted to 95%. In data set [6], this compound displayed a logP of 3.94.
With `Cn1nc(C(F)F)c(C(=O)N(C2CC2)C2CCCCC2C(C)(C)C)c1F` (stereo not shown) [Example 350], the Efficacy is 100% in data set [1], 90% in data set [2] and 100% in data set [3]. Also, the “% Inhibition of Aflatoxin at 50 μM” value in data set [4] came to 100%. Also, in data set [5], the “% Inhibition of fungal growth at 50 μM” value is 100%. Also, in data set [6], the logP is reported as 4.71.
Regarding `CC1CCCC(C)(C)C1CCC(C)N(C(=O)c1c(C(F)F)nn(C)c1F)C1CC1` (stereo not shown) [Example 367], the Efficacy is 100% in data set [1], 90% in data set [2] and 100% in data set [3]. Further, the “% Inhibition of Aflatoxin at 50 μM” value in data set [4] came to 100%. The “% Inhibition of fungal growth at 50 μM” value in data set [5] came to 100%. The logP in data set [6] came out at 5.81.
Take `Cn1nc(C(F)F)c(C(=O)NC2CCCCC2C2CCCCC2)c1F` (stereo not shown) [Example 374]: the Efficacy result in data set [7] (setting [8]) is “total protection”; in data set [7] (setting [10]), 100%; in data set [7] (setting [9]), 100%. The compound also had a log partition coefficient (logP) in data set [6] of 4.34.
For `Cc1nn(C)c(F)c1C(=O)NC1CCCCC1C1CCCCC1` (stereo not shown) [compound CMP4, N-[1,1′-bi(cyclohexyl)-2-yl]-5-fluoro-1,3-dimethyl-1H-pyrazole-4-carboxamide, reference compound], in data set [7] (setting [8]), the Efficacy entry is recorded as “no protection”. The pest or weed control at 500 ppm in data set [7] (setting [10]) worked out at 0%.
With `Cn1cc(C(=O)NC2CCCCC2C2CCCCC2)c(C(F)F)n1` (stereo not shown) [compound CMP5, N-[1,1′-bi(cyclohexyl)-2-yl]-3-(difluoromethyl)-1-methyl-1H-pyrazole-4-carboxamide, reference compound], the Efficacy result in data set [7] (setting [8]) is recorded as “no protection”. The pest or weed control at 500 ppm in data set [7] (setting [10]) was 0%.
